{"source": "patent US20080200539A1", "about": "“Topical antifungal treatment” (priority 2002, published 2008)", "key": {"[1]": {"assay": "pH of triacetin when applied to the skin", "assay_type": "physicochemical", "excerpt": "Triacetin also acts to decrease the pH of the application area It is known that fungus like moist areas and thrive in environments with a normal acidity, pH 6.5 to 7.2. Yeasts die in low pH environments, i.e. pH levels in the range of 4.5 or less, and infectious fungi are adversely affected in low pH environments. Triacetin has a pH of 4.0 when applied to the skin, and effectively lowers the pH of the application area. As triacetin breaks down after application, it produces acetic acid, a weak antifungal agent. Triacetin also acts to lower the moisture content in the application area, which aids in creating an adverse environment for fungal growth. In high concentrations, such as in this preparation, triacetin reduces the secretion of moisture during perspiration, due to an astringent effect, or antihyperhydrosis effect. Triacetin also acts to reduce moisture by bonding with the moisture available in the affected area, reducing the opportunity or availability of the moisture to be utilized by the fungal cells. After application, triacetin also coats the application area, saturating the epidermis and limiting moisture available for fungal growth. Finally, triacetin can also be used for nutritional support whether administered orally, topically or intravenously, to restore healthy, normal skin as is seen with the topical administration of this preparation."}, "[2]": {"system": "superficial fungal infections of the skin", "details": "used alone; previous clinical studies by others; cited from earlier work"}, "[3]": {"system": "nails infected by dermatophytes", "details": "cited from earlier work"}, "Microsporum gypseum": {"system": "Microsporum gypseum", "details": "cited from earlier work"}, "Microsporum canis": {"system": "Microsporum canis", "details": "cited from earlier work"}, "Microsporum audouini": {"system": "Microsporum audouini", "details": "cited from earlier work"}, "Microsporum japonicum": {"system": "Microsporum japonicum", "details": "cited from earlier work"}, "Trichophyton rubrum": {"system": "Trichophyton rubrum", "details": "cited from earlier work"}, "[4]": {"system": "Trichophyton mentagrophytes", "details": "cited from earlier work"}, "[5]": {"system": "Trichophyton schoenleinii", "details": "cited from earlier work"}, "Trichophyton tonsurans": {"system": "Trichophyton tonsurans", "details": "cited from earlier work"}, "Epidermophytom flocossum": {"system": "Epidermophytom flocossum", "details": "cited from earlier work"}, "Aspergillis niger": {"system": "Aspergillis niger", "details": "cited from earlier work"}, "[6]": {"assay": "Topical vitamin A on surgical incision area in post surgical patients", "assay_type": "in vivo", "details": "50,000 international units applied topically", "excerpt": "Vitamin A is a fat soluble vitamin that is used in a wide dosage range from 5 to 50,000 I.U. to assist in healing. […] Vitamin A is also important for nutritional support. Vitamin D is also a fat soluble vitamin utilized in nutritional support. Vitamin D is not recommended in doses of over 6000 International Units per day. Topical applications with vitamin A and D have been used for years to enhance healing and repair damaged skin."}}, "data": [{"compound": "CC(=O)OCC(COC(C)=O)OC(C)=O", "note": "[Triacetin]", "values": [{"measurement": "pH", "setting": "[1]", "value": 4.0}, {"measurement": "effectiveness as an antifungal agent", "setting": "[2]", "value": "only mildly effective"}]}, {"compound": "CN(C/C=C/C#CC(C)(C)C)Cc1cccc2ccccc12", "note": "[terbinafine]", "values": [{"measurement": "duration of continuous daily intake needed to show some efficacy", "setting": "[3]", "value": "three months or more"}]}, {"compound": "Cc1cccc(N(C)C(=S)Oc2ccc3ccccc3c2)c1", "note": "[tolnaftate]", "values": [{"measurement": "in vitro activity", "setting": "Microsporum gypseum", "value": "fungistatic or fungicidal"}, {"measurement": "in vitro activity", "setting": "Microsporum canis", "value": "fungistatic or fungicidal"}, {"measurement": "in vitro activity", "setting": "Microsporum audouini", "value": "fungistatic or fungicidal"}, {"measurement": "in vitro activity", "setting": "Microsporum japonicum", "value": "fungistatic or fungicidal"}, {"measurement": "in vitro activity", "setting": "Trichophyton rubrum", "value": "fungistatic or fungicidal"}, {"measurement": "in vitro activity", "setting": "[4]", "value": "fungistatic or fungicidal"}, {"measurement": "in vitro activity", "setting": "[5]", "value": "fungistatic or fungicidal"}, {"measurement": "in vitro activity", "setting": "Trichophyton tonsurans", "value": "fungistatic or fungicidal"}, {"measurement": "in vitro activity", "setting": "Epidermophytom flocossum", "value": "fungistatic or fungicidal"}, {"measurement": "activity against Aspergillis niger", "setting": "Aspergillis niger", "value": "varies from one strain to another"}]}, {"compound": "Vitamin A", "values": [{"measurement": "healing time", "setting": "[6]", "value": "improved healing time"}]}]}
